In patent US9283209B2, “Oral formulations of deferasirox” (NOVARTIS AG, priority 2013, dated 2016):
In brackets after ≈: the same amount, converted by molar mass. Where two headings read alike, the source gives them in different places.

Experiments:
[1] = Exjade (deferasirox) solubility profile at 37 C; format: physicochemical
Source text: Due to the poor solubility of Exjade™ (deferasirox), a high dose is required to achieve the desired therapeutic effect, which results in unwanted side effects, such as gastrointestinal (GI) irritation and kidney toxicity. […] To meet the high dose requirement and reduce pill burden Exjade™ (deferasirox) was developed as dispersible tablets with about 29.4% drug load. The disadvantage of this type of formulation is that the tablets have to be dispersed in water or appropriate liquid, such as in orange juice or apple juice and stirred until a fine suspension is obtained prior to administration. Further, the dispersible tablets have to be taken at least 30 minutes before food.

[2] = Study 2209: one year study in NTDT patients, GI adverse event rates; format: in vivo, human; conditions: 10 mg/kg
Source text: The new Exjade formulations represent a significant improvement in patient care and support compliance with chelation therapy because of the improved pharmaceutical properties and because of the changes in composition. […] Exjade currently also contains lactose and so is not recommended in patients with rare hereditary problems of galactose intolerance, the Lapp lactase deficiency, glucose-galactose malabsorption or severe lactase deficiency. Novartis believes the exclusion of lactose and sodium lauryl sulfate in the new formulations will improve the gastrointestinal tolerability of the product.

[3] = Patient study A0105F: Exjade after high-fat breakfast; format: in vivo, human; conditions: patients
Experimental: (§1) Therefore, patients would only be exposed to the highest approved dose (40 mg/kg/day for the current formulation) after an extended period of up-titration with confirmed tolerability • the absence of a significant food effect results in a lower risk of increased exposure when the drug is taken with a meal.

[4] = Thorough QT healthy volunteer study; format: in vivo, human; conditions: human, in vivo, oral, 40 mg/kg, 40 mg/kg immediately after a high-fat breakfast, 44 healthy volunteers
Experimental: as §1
(§2) Deferasirox Cmax values in healthy volunteers are generally higher than in patients. Two healthy volunteer studies in the initial registration package in 2005 were therefore reviewed for potential Cmax-related adverse events.

[5] = test system: QT interval; test: Thorough QT healthy volunteer study; format: in vivo, human
Experimental: as §1, §2

[6] = Randomized crossover bioequivalence study, Exjade dispersed in fruit juice or water; format: in vivo, human; conditions: single 20 mg/kg dose, 28 healthy volunteers, 2.5 to 5 hours after intake
Source text: as §2

[7] = test system: serum creatinine, creatinine clearance; conditions: human, in vivo
Experimental: In addition, a new analysis of creatinine and creatinine clearance changes was performed to explore whether deferasirox-associated renal changes are a function of peak exposure (Cmax) or of overall exposure (AUC). The analysis used data from the large multicenter study 7, in which Ctrough (a proxy of AUC) and deferasirox C2h (a proxy of Cmax) was collected at multiple time points.
Based on study 7 data, the relationship between PK parameters at steady state (Ctrough and C2h) and serum creatinine was investigated by using a linear mixed model of log-transformed creatinine values (1990 observations at week 12 and 28) with patient included in model as a random effect. After log-transformation, baseline creatinine levels, C2h and Ctrough were included as predictors in the model.

[8] = 40 mg/kg after high-fat breakfast, 44 volunteers

Work on O=C(O)c1ccc(-n2nc(-c3ccccc3O)nc2-c2ccccc2O)cc1 [deferasirox] yielded a solubility ([1]; aqueous buffer, pH 3, 37 C) of less than 0.01 mg/mL, a solubility ([1]; aqueous buffer, pH 4, 37 C) of less than 0.01 mg/mL and a solubility ([1]; aqueous buffer, pH 5, 37 C) of less than 0.01 mg/mL. The solubility ([1]; aqueous buffer, pH 7.5, 37 C) was 0.167 mg/mL (≈ 447 µM), the solubility ([1]; simulated gastric fluid, pH 1, 37 C) was less than 0.01 mg/mL and the solubility ([1]; simulated gastric fluid, pH 2, 37 C) was less than 0.01 mg/mL. For the same compound, the solubility ([1]; water, 37 C) was 0.02 mg/mL (≈ 53.6 µM), the “GI adverse event rate” value [2] was 36.4% and the “Change in exposure after a high-fat breakfast” value [3] was “nearly doubled”. The Cmax ([4]; read-out: Cmax (average)) was 256 µM, the Cmax ([4]; read-out: Cmax (range)) was 134 to 472 µM and the “GI symptoms (diarrhea/loose stools, flatulence, and nausea)” value [5, 8] was 18%. For the same compound, the “Headache and dizziness, one patient each” value [5, 8] was 2%, the “Effect on the QT interval” value ([5]; healthy volunteers, doses up to 40 mg/kg) was “no effect” and the “HV subjects reporting loose stools” value [6] was “three”. The “Estimate, Log (C2h)” value [7] was 0.03287, the “Estimate, Log (Ctrough)” value [7] was 0.06504 and the “Estimate, Log (baseline creatinine)” value [7] was 0.9593. For the same compound, the “Estimate, Log(C2h)” value [7] was −0.00203, the “Estimate, Log(Ctrough)” value [7] was 0.9346 and the “Estimate, Log(baseline creatinine clearance)” value [7] was −10.3474. The “OR for a 2-fold increase in PK parameter, Log(C2h)” value [7] was 0.999, the “OR for a 2-fold increase in PK parameter, Log(Ctrough)” value [7] was 1.911 and the “OR for a 30% increase in PK parameter, Log(Ctrough)” value [7] was 1.278. The “Slope of linear regression between Day 1 C2h and percent change in serum creatinine at week 4” value [7] was 0.03 (−0.01, 0.08).
